The results in this text go back to ChEMBL document CHEMBL1201861, “Genomics of Drug Sensitity in Cancer screening data, Wellcome Trust Sanger Institute”.

What all share (assay type): functional, cell-based
One assay relates to KP-N-RT-BM-1. Put plainly: SANGER: Inhibition of human KP-N-RT-BM-1 cell growth in a cell viability assay.
The subject of another assay is CP67-MEL. In words: SANGER: Inhibition of human CP67-MEL cell growth in a cell viability assay.
The next assay relates to SKM-1. Put plainly: SANGER: Inhibition of human SKM-1 cell growth in a cell viability assay. As to conditions: Homo sapiens, SKM-1.
Another assay has as its system A549. In words: cells. Conditions: Homo sapiens.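 Also: growth inhibition of A549 cells, read out with a cell viability assay.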
For the next assay, the system named is ECC10. In words: cells. Conditions: Homo sapiens.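 Also: growth inhibition of ECC10 cells, read out by a cell viability assay.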
Another assay relates to CHP-134. Put plainly: SANGER: Inhibition of human CHP-134 cell growth in a cell viability assay.
The subject of a further assay is SW 1116. In words: cells. Conditions: Homo sapiens.
The next assay relates to TI-73. In words: cells. Conditions: Homo sapiens.
The next assay deals with BALL-1. In words: cells. Conditions: Homo sapiens.
For a further assay, the system named is NCI-H2029. In words: cells. Conditions: Homo sapiens.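 Also: Read-out is a viability assay on the cultured cells, and IC50 is the concentration that suppresses cell growth.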
In the next assay the test system is D-566MG. Put plainly: cells. Conditions: Homo sapiens.
The next assay deals with SW900. Put plainly: cells. As to conditions: Homo sapiens.
The next assay deals with NBsusSR. In words: cells. Conditions: Homo sapiens.
The test system of another assay is NCI-H2291. In words: cells. Conditions: Homo sapiens.
Another assay relates to BT-549. Put plainly: cells. Conditions: Homo sapiens.
The next assay has as its system H9. In words: cells. As to conditions: Homo sapiens.
A further assay relates to NCI-H1048. In words: cells. As to conditions: Homo sapiens.
The next assay deals with ZR-75-30. In words: cells. As to conditions: Homo sapiens.
The next assay concerns Calu-1. Put plainly: SANGER: Inhibition of human Calu-1 cell growth in a cell viability assay.
The test system of the next assay is EW-7. Put plainly: SANGER: Inhibition of human EW-7 cell growth in a cell viability assay.
For the next assay, the system named is C-4-II. Put plainly: SANGER: Inhibition of human C-4-II cell growth in a cell viability assay.

Description for A549: SANGER: Inhibition of human A549 cell growth in a cell viability assay.
Description for BALL-1: SANGER: Inhibition of human BALL-1 cell growth in a cell viability assay.
Description for BT-549: SANGER: Inhibition of human BT-549 cell growth in a cell viability assay.
Description for ECC10: SANGER: Inhibition of human ECC10 cell growth in a cell viability assay.
Description for H9: SANGER: Inhibition of human H9 cell growth in a cell viability assay.
Description for NBsusSR: SANGER: Inhibition of human NBsusSR cell growth in a cell viability assay.
Description for NCI-H1048: SANGER: Inhibition of human NCI-H1048 cell growth in a cell viability assay.
Description for NCI-H2029: SANGER: Inhibition of human NCI-H2029 cell growth in a cell viability assay.
Description for NCI-H2291: SANGER: Inhibition of human NCI-H2291 cell growth in a cell viability assay.
Description for SW 1116: SANGER: Inhibition of human SW1116 cell growth in a cell viability assay.
Description for SW900: SANGER: Inhibition of human SW900 cell growth in a cell viability assay.
Description for TI-73: SANGER: Inhibition of human TI-73 cell growth in a cell viability assay.
Description for ZR-75-30: SANGER: Inhibition of human ZR-75-30 cell growth in a cell viability assay.

One may read the IC50 as the point on the concentration scale where inhibition reaches its midpoint. Low readings indicate greater potency, high ones weaker potency. As to `C=CC(=O)N1CCCC(Nc2nc(Nc3ccc(N(C)C(=O)CC)cc3)nc3[nH]cnc23)C1` (centres undefined), the IC50 in the assay with KP-N-RT-BM-1, in the assay with CP67-MEL and in the assay with SKM-1 was > 10.2 µM throughout.

In the case of `COc1ccc(N(C(=O)Oc2c(C)cccc2C)c2ccnc(Nc3ccc(N4CCN(C)CC4)cc3)n2)c(OC)c1`, the IC50 in the assay on KP-N-RT-BM-1, in the assay with CP67-MEL and in the assay with SKM-1 was > 5.12 µM each time.

Take `O=C1NC(=O)c2c1c(-c1ccccc1Cl)cc1[nH]c3ccc(O)cc3c21`: the IC50 was > 2 µM in the assay on A549; 1.41 µM in the assay on ECC10; > 2 µM in the assay on CHP-134; > 2 µM with SW 1116; > 2 µM with TI-73; > 2 µM in the assay on BALL-1. Besides, the IC50 in the assay with NCI-H2029 is > 2 µM; in the assay on D-566MG, > 2 µM; in the assay with SW900 it was > 2 µM; in the assay on NBsusSR it was 0.952 µM; in the assay on NCI-H2291, > 2 µM; in the assay on BT-549 it was > 2 µM. The IC50 is 0.832 µM in the assay with H9, > 2 µM with NCI-H1048 and > 2 µM with ZR-75-30.

For the compound `Cc1cc(N2CCOCC2)cc2[nH]c(-c3c(NC[C@@H](O)c4cccc(Cl)c4)cc[nH]c3=O)nc12`, the values for the IC50 in the assay with KP-N-RT-BM-1, with CP67-MEL and with SKM-1 were 1.44 µM, 0.898 µM and > 5.12 µM, respectively.

Take `NC(=O)c1cccc(-c2cc(Nc3ccc(OC(F)(F)F)cc3)ncn2)c1`: the IC50 with KP-N-RT-BM-1, in the assay on CP67-MEL and in the assay with SKM-1 was > 1.28 µM throughout.

Consider `NC(=O)Nc1cc(-c2cccc(F)c2)sc1C(=O)N[C@H]1CCCNC1` [AZD-7762], for which the IC50 with A549 was 1.49 µM; with ECC10 it was > 2 µM; in the assay on SW 1116, > 2 µM; with TI-73 it was 0.209 µM; in the assay with BALL-1, > 2 µM; with NCI-H2029, > 2 µM. Moreover, the IC50 is 0.147 µM in the assay on D-566MG; 1.12 µM in the assay with SW900; 0.318 µM in the assay on NBsusSR; > 2 µM in the assay on NCI-H2291; 1.27 µM in the assay with BT-549; 0.122 µM with H9. The IC50 in the assay with NCI-H1048 is 0.919 µM; with ZR-75-30 it was > 2 µM.

Take `O=C(NCCCNc1nc(Nc2cccc(NC(=O)N3CCCC3)c2)ncc1I)c1cccs1` [BX-795]: the IC50 with A549 was 2.14 µM; with CHP-134 it was 1.94 µM; in the assay with SW 1116, > 5 µM; in the assay with TI-73 it was 2.11 µM; with BALL-1, > 5 µM; in the assay with NCI-H2029, > 5 µM. Besides, the IC50 with D-566MG is 1.3 µM; with SW900 it was > 5 µM; in the assay with NBsusSR, 1.25 µM; in the assay with NCI-H2291, > 5 µM; in the assay on BT-549, 4.45 µM; in the assay with NCI-H1048 it was 1.79 µM. For the same compound, the IC50 in the assay with ZR-75-30 is > 5 µM.

Take `Cc1ccc(-n2nc(C(C)(C)C)cc2NC(=O)Nc2ccc(OCCN3CCOCC3)c3ccccc23)cc1` [DORAMAPIMOD]: the IC50 in the assay on A549, with ECC10, in the assay on CHP-134, in the assay on SW 1116, with TI-73 and with BALL-1 was > 10 µM in each case. The IC50 with NCI-H2029, in the assay on D-566MG, with SW900, in the assay on NBsusSR, with NCI-H2291 and in the assay with BT-549 was > 10 µM throughout. The IC50 in the assay on H9, with NCI-H1048 and with ZR-75-30 was > 10 µM each time.

Turning to `CO[C@@H]1[C@H](N(C)C(=O)c2ccccc2)C[C@H]2O[C@]1(C)n1c3ccccc3c3c4c(c5c6ccccc6n2c5c31)C(=O)NC4` [MIDOSTAURIN], the IC50 with Calu-1 was > 0.512 µM; with EW-7, > 0.512 µM; in the assay with C-4-II, 0.349 µM.

As to `NC1(c2ccc(-c3nc4ccn5c(=O)[nH]nc5c4cc3-c3ccccc3)cc2)CCC1` [MK-2206], the IC50 was > 4 µM in the assay on A549; 3.94 µM with ECC10; > 4 µM in the assay on CHP-134; > 4 µM in the assay on SW 1116; > 4 µM in the assay on TI-73; > 4 µM in the assay with BALL-1. Also, the IC50 is > 4 µM in the assay on NCI-H2029; > 4 µM with D-566MG; > 4 µM in the assay with NBsusSR; > 4 µM with NCI-H2291; > 4 µM with BT-549; 0.389 µM in the assay with H9. In addition, the IC50 in the assay on NCI-H1048 is 2.97 µM; with ZR-75-30 it was > 4 µM.

Take `CC1(C)CCC(c2ccc(Cl)cc2)=C(CN2CCN(c3ccc(C(=O)NS(=O)(=O)c4ccc(N[C@H](CCN5CCOCC5)CSc5ccccc5)c(S(=O)(=O)C(F)(F)F)c4)cc3)CC2)C1` [NAVITOCLAX]: the IC50 was > 2 µM with A549; 0.0379 µM with ECC10; 0.163 µM with CHP-134; > 2 µM with SW 1116; > 2 µM in the assay with TI-73; > 2 µM in the assay on BALL-1. Also, the IC50 in the assay with NCI-H2029, with D-566MG, in the assay with SW900, with NBsusSR, in the assay with NCI-H2291 and in the assay with BT-549 was > 2 µM each time. In addition, the values for the IC50 with H9, with NCI-H1048 and in the assay on ZR-75-30 were > 2 µM, 0.51 µM and > 2 µM, respectively.

As to `CS(=O)(=O)N1CCN(Cc2cc3nc(-c4cccc5[nH]ncc45)nc(N4CCOCC4)c3s2)CC1` [PICTILISIB], the IC50 in the assay on A549 was 1.4 µM; in the assay on CHP-134 it was > 4 µM; in the assay on SW 1116, > 4 µM; in the assay on TI-73 it was > 4 µM; in the assay on BALL-1, > 4 µM; in the assay with NCI-H2029, > 4 µM. Moreover, the IC50 is 1.63 µM with D-566MG; > 4 µM with SW900; 0.489 µM in the assay on NBsusSR; > 4 µM in the assay on NCI-H2291; > 4 µM in the assay on BT-549; 2.11 µM in the assay with NCI-H1048. In the assay on ZR-75-30, the IC50 is > 4 µM.

As to `CN(C)CCOc1ccc(-c2nc(-c3ccncc3)c(-c3ccc4c(c3)CC/C4=N\O)[nH]2)cc1` [SB590885], the IC50 in the assay on A549, in the assay on ECC10, in the assay on CHP-134, with SW 1116, in the assay on TI-73 and with BALL-1 was > 5 µM throughout. Also, the IC50 in the assay with NCI-H2029, in the assay with D-566MG, in the assay with SW900, in the assay on NBsusSR, with NCI-H2291 and in the assay with BT-549 was > 5 µM throughout. For the same compound, the IC50 with H9 was 0.401 µM; with NCI-H1048, > 5 µM; with ZR-75-30, > 5 µM.
